{
  "source": "patent US5902794A",
  "about": "(priority 1997, dated 1999)",
  "key": {"LS-174T": {"tested_on": "LS-174T", "assay": "growth of LS-174T human colon carcinoma in nude mice", "assay_type": "in vivo", "details": "nude mouse, pellet with 10 mg cAMP analogue, day 7", "method": "LS174T, human colon cancer line was s.c. grown in nude mice and a solid\ntumor, transplantable, was obtained.\n(§1) 8Cl-cAMP and DBcAMP were given as a 20mg pellet consisting of 10 mg of […]"}, "[1]": {"tested_on": "p21 ras protein (MCF-7 cells)", "assay": "Western blotting of p21 ras protein in MCF-7 cells", "assay_type": "cell-based, human", "details": "10 microM, three days", "method": "Western blotting of p21 protein was performed as described below. […] V is cell lysate from Ha-MuSV-transformed NIH3T3 clone 13-3B-4. M, marker proteins of known molecular weight.\nCellular proteins present in cell extracts were separated by 12% SDS-PAGE and transferred to nitrocellulose sheets in transfer buffer (25 mM Tris, 192 mM glycine, 20% methanol, pH 7.4). Nitrocellulose sheets were washed and first incubated with 3% bovine serum albumin in NTE-NP40 (50 mM Tris-HCl, pH 7.5, 150 mM NaCl, 2 mM EDTA, 0.1% Nonidet P-40) for three hours at 37° C. and then sequentially incubated with medium containing p21 monoclonal antiserum Y13-259 directed against the Ha-MuSV-encoded p21 for sixteen hours at 4° C., rabbit anti-rat IgG for 2.5 hours in an ice-water bath, and 5×10^5 cpm/ml ^125 I-protein A for one hour in an ice-water bath. The nitrocellulose sheets were air-dried and exposed to Kodak XAR film for 12-36 hours at -20° C. Comparison of the resulting autoradiograms with others in which normal rat serum was substituted for p21 monoclonal antibody permitted identification of p21. To provide a reference p21, cell lysates were prepared from NIH 3T3 clone 13-3B-4 that had been transfected with Ha-MuSV DNA.\nThe levels of p21 protein are expressed relative to the p21 level in the untreated control cells, which is set equal to 1.0 O.D."}, "[2]": {"tested_on": "LS-174T colon cancer cells", "assay": "cell cycle analysis, LS-174T", "assay_type": "cell-based, human", "details": "8-Cl 10 μM, 3 days, two separate experiments", "method": "DNA histograms were generated on FACS II by using the DNA intercalating dye propidium iodide as described by Braylan et al. (Cytometry 2: 337-343, 1982). The percentage of cells in each cycle phase was calculated by using a PDP-11/34 computer and software as described by Neckers et al. (Mol. Cell. Biol. 6: 4244-4250, 1986).\nBreast (MCF-7, MDA-MB-231) and colon (LS-174T) cancer cells in\nlog phase (untreated control) and 3 days after treatment with\n(5 μM) were analyzed for DNA content by flow cytometric analysis"}, "[3]": {"tested_on": "LS-174T colon cancer line", "assay": "growth inhibition and release from inhibition, LS-174T (FIG. 3)", "assay_type": "cell-based, human", "method": "1×10^5 cells/60 mm dish were seeded, and 24 hours later (Day 0), the medium was removed and fresh medium and additives were added then and every 48 hours thereafter. […] The triplicate cell count for each experimental point never varied by more than 10%.\n(§2) All breast cancer cell lines were grown in IMEM supplemented with 10% fetal bovine serum, 20 mM HEPES, penicillin-streptomycin, and extra glutamine. Colon carcinoma cell lines were grown in EMEM supplemented with 10% FBS, EMEM, NEAA, HEPES 20 mM, extra glutamine, and penicillin-streptomycin. The cells were grown at 37° C. in humidified incubators in an atmosphere of 5% CO2."}, "DMBA-1": {"tested_on": "DMBA-1", "assay": "growth of transplantable DMBA-1 rat mammary carcinoma", "assay_type": "in vivo", "details": "pellet with 10 mg cAMP analogue, day 7", "method": "DMBA-1, a variant of primary hormonedependent DMBA tumor,\nhormoneindependent and transplantable.\nas §1"}, "HL-60": {"tested_on": "HL-60", "assay": "growth inhibition of HL-60", "assay_type": "cell-based, human"}, "[4]": {"tested_on": "mammary tumor inductions by DMBA", "assay": "DMBA mammary tumor induction (FIG. 8)", "assay_type": "in vivo", "details": "10 mg pellet one day before DMBA"}, "MDA-MB-231": {"tested_on": "MDA-MB-231", "assay": "growth of MDA-MB-231 cells", "assay_type": "cell-based", "details": "Homo sapiens, MDA-MB-231, 72 h; 10 microM, 3 days", "method": "(§3) M is marker proteins of known molecular weight.\nas §2\nFor cell growth experiments, 2-3×10^5 cells/60 mm dish were seeded, and 24 hours later (Day 0), the medium was removed, and fresh medium and the additives were added then and every 48 hours thereafter The compounds of the present invention were added using 100× concentrated stock solutions. At desired times, cell counts in duplicate were performed on a Coulter counter after harvesting the cells with gentle trypsinization."}, "c-myc protein": {"tested_on": "c-myc protein", "assay": "c-myc protein level, Western blotting (FIG. 9B)", "assay_type": "cell-based, human", "details": "5 micromol/L, three days", "method": "The cells were grown in suspension culture in RPMI 1640 medium supplemented with 10% fetal bovine serum, penicillin (50 U/ml), streptomycin ([…]), 10 mmol/L HEPES buffer, and extra glutamine. […] Surface antigen analysis of HL-60 cells was performed by flow cytometry using a panel of monoclonal antibodies reactive with either myeloid cells or monocytic cells. Terminal deoxynucleotidyl transferase (TdT) was assayed by an immunoperoxidase method using a TdT fluorescence kit. Western blotting of c-myc protein was performed using c-myc antibody 15206D11 (Scripps Clinic and Research Foundation, LaJolla, Calif.).\nM marker proteins of known molecular weight. […] The resulting supernatants were used as cell lysates. […] ND=nondetectable."}, "[5]": {"tested_on": "R^I and R^II cAMP receptor proteins in breast (MDA-MB-231) and colon (LS-174T) cancer cells", "assay": "R^I and R^II cAMP receptor protein levels in breast and colon cancer lines (FIG. 6)", "assay_type": "cell-based, human", "method": "as §3\n(§4) The incubations were carried out at 23° C. for 60 minutes in 96-well immunoplates. The reaction mixtures were then irradiated for 30 seconds at 254 nm, placing a Mineralite UVS-11 hand lamp directly onto the plate. The samples were mixed with 25 microliters of 3× sample buffer (3% SDS, 15% beta-mercaptoethanol, 30 mM Tris, 30% glycerol, 1% bromophenol blue saturated solution), boiled for 3 minutes, and centrifuged at 700×g for five minutes. The samples containing 50-100 micrograms of protein were subjected to 0.05% SDS-12% PAGE. The gels were fixed, dried, and exposed to X-ray films overnight. The protein concentrations were determined by the method of Lowry et al., (J. Biol. Chem. 193: 265-275, 1951) with bovine serum albumin as standard."}, "[6]": {"tested_on": "R^I cAMP receptor protein (MDA-MB-231)", "assay": "photoaffinity labelling of R^I cAMP receptor protein, MDA-MB-231", "assay_type": "cell-based, human", "details": "10 microM, 3 days; control 1.0", "method": "as §3, §4\nThe levels of the receptor proteins are expressed relative to the R^I level in the untreated control cells of MDA-MB-231 and LS-174T, which are each set equal to 1.0 O.D.; the scale was expanded to differentiate the lower intensity bands."}},
  "data": [
    {"smiles": "Nc1ncnc2c1nc(Cl)n2[C@@H]1O[C@@H]2COP(=O)(O)O[C@H]2[C@H]1O", "note": "[8-Cl-cAMP]", "values": [
      {"measurement": "Change in mean tumor volume", "setting": "LS-174T", "result": 0.58, "unit": "cm^3"},
      {"measurement": "Change in mean tumor volume (%)", "setting": "LS-174T; none = 100", "result": 60, "unit": "%"},
      {"measurement": "p21 level, in words", "setting": "[1]", "result": "markedly decreased level of p21"},
      {"measurement": "% Cell population in G1", "setting": "[2]", "result": "63,53%"},
      {"measurement": "% Cell population in G2 M", "setting": "[2]", "result": "22,25%"},
      {"measurement": "% Cell population in S", "setting": "[2]", "result": "15,22%"},
      {"measurement": "activity at 10 µM", "setting": "[2]; Homo sapiens, LS174T, 72 h, read-out: % Growth", "result": 30.3, "unit": "%"},
      {"measurement": "mechanism of growth inhibition / cell viability", "setting": "[3]", "result": "decrease in the rate of replication without affecting cell viability"},
      {"measurement": "cell growth during treatment", "setting": "[3]; 8-Cl-cAMP 10 microM or 8-Cl-adenosine 5 microM", "result": "marked reduction in cell growth"},
      {"measurement": "growth after cessation of treatment", "setting": "[3]; after removal of additives", "result": "resumed growth almost immediately"},
      {"measurement": "Change in mean tumor volume", "setting": "DMBA-1", "result": 1.60, "unit": "cm^3"},
      {"measurement": "growth inhibition (footnote)", "setting": "HL-60; 20 μmol/L", "result": "Seventy percent growth inhibition"},
      {"measurement": "IC50", "setting": "HL-60; Homo sapiens, HL-60", "result": 100, "unit": "µM"},
      {"measurement": "reduction in the total number of tumors produced", "setting": "[4]", "result": 70, "unit": "%"},
      {"measurement": "activity at 10 µM", "setting": "MDA-MB-231", "result": 45, "unit": "%"},
      {"measurement": "c-myc protein level, in words", "setting": "c-myc protein", "result": "marked reduction of c-myc protein level"},
      {"measurement": "increase in the ratio of R^II to R^I", "setting": "[5]; densitometry", "result": "two- to three-fold increase"},
      {"measurement": "48,000 R^I receptor protein, in words", "setting": "[5]; three days, 10 microM", "result": "concomitant decrease"},
      {"measurement": "52,000 MW (R^II) receptor protein, in words", "setting": "[5]; three days, 10 microM", "result": "increased appreciably"},
      {"measurement": "R^I relative level", "setting": "[6]", "result": "0.25 ± 0.03"}
    ]}
  ]
}
